Our source for the IC50 values is PubChem BioAssay AID1361 (SRMLSC, 2008).

pIC50: −log10 of the molar value. Calls of active or inactive are those of the source. How the calls were made is not given here.

This assay is described as follows: blockers of mitochondrial fusion, WT vs mutant – cell-based, chemical genetic, wild-type and mutant, confirmation (AID 1361). As to conditions: Cell-based mitochondrial fusion phenotype, imaging.
Where [1] appears, read: mutant cells, measured here: mutant cell line IC50.

In the case of `O=C(C1=C[C@H](c2csc3ccccc23)C[C@H](OCc2ccc(CO)cc2)O1)N1CCN(Cc2ccccc2)CC1`, the negative-log IC50 (pIC50) (WT cells) is 5.39 and the pIC50 under setting [1] is 4.98.
Turning to `Fc1ccc(N2N=C(c3cccs3)CC2c2ccco2)c(F)c1` (stereo not given), the pIC50 is, setting by setting: (WT cells) 4.80; under setting [1], 4.65.
As to `Cc1ccc2nc(SC(C(=O)Nc3ccc(F)cc3)c3ccccc3)[nH]c2c1` (stereo not given), the IC50 (WT cells) is > 25 µM (inactive). Under setting [1], this compound showed a pIC50 of under 4.60.
`c1ccc(Cn2c(CNc3nc4ccccc4n3CCN3CCCCC3)nc3ccccc32)cc1`: the IC50 (WT cells) was > 25 µM (inactive). Under setting [1], this compound gave a pIC50 of under 4.60.
The matching figures for `CN(C)c1ccc(O)c2c1CC1CC3[C@@H](N(C)C)C(=O)C(C(N)=O)=C(O)[C@]3(O)C(=O)C1=C2O` (stereo not given in full): > 25 µM (inactive) and under 4.60.
